As a reminder, the pIC50 is −log10 of the IC50, conventionally taken in molar units.

The values below come from US8809352B2, “Sulfonamides as inhibitors of Bcl-2 family proteins for the treatments of cancer” (Novartis AG, priority 2009, dated 2014).

pIC50: −log10 of the molar value.

This test deals with BCL2 (Homo sapiens, UniProt P10415). The test is described as follows: Biacore SPR solution inhibition assay of BCL-2 binding to peptide derivatized sensor surfaces. As to conditions: SPR competition; 56 nM BCL2 pre-equilibrated with compound one hour; biotinylated BAK, BAD and NOXA peptide surfaces; 25° C. A digest of the protocol: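 Solution-competition SPR at 25 °C in HEPES pH 7.4 buffer with 1.25 mM DTT and 3% DMSO: compounds (6-point threefold series, 16 μM to 0.004 nM) pre-equilibrated 1 h with 56 nM BCL2, then injected over captured biotinylated BAK, BAD and NOXA peptide surfaces. Binding levels relative to BCL2-only controls gave % inhibition.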
Sequence of BCL2 (P10415 whole entry): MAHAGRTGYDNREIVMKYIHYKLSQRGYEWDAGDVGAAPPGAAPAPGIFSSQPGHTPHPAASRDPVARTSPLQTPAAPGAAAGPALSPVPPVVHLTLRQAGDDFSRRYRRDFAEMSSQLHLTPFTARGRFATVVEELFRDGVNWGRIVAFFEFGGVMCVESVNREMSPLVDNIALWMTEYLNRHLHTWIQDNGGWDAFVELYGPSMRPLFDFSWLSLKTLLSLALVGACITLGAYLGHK
A general note: In SPR one partner is held on a chip, and binding of the other changes the refractive index at the surface.
As to `CCN1CCN(CC[C@H](CSc2ccccc2)Nc2ccc(S(=O)(=O)Nc3ncnc4c3CCN(C3CCN(Cc5ccccc5-c5ccc(Cl)cc5)CC3)C4)cc2S(=O)(=O)C(F)(F)F)CC1` [Example 23, N-{7-[1-(4′-Chloro-biphenyl-2-ylmethyl)-piperidin-4-yl]-5,6,7,8-tetrahydro-pyrido[3,4-d]pyrimidin-4-yl}-4[(R)-3-(4-ethyl-piperazin-1-yl)-1-phenylsulfanylmethyl-propylamino]-3-trifluoromethanesulfonyl-benzenesulfonamide], the negative logarithm of the IC50 (pIC50) was 7.29.

`CC(c1cc(F)ccc1-c1ccc(Cl)cc1)N1CCC(N2CCc3c(ncnc3NS(=O)(=O)c3ccc(N[C@H](CCN4CCOCC4)CSc4ccccc4)c(S(=O)(=O)C(F)(F)F)c3)C2)CC1` (stereo partly drawn) [Example 31, N-(7-(1-(1-(4′-chloro-4-fluorobiphenyl-2-yl)ethyl)piperidin-4-yl)-5,6,7,8-tetrahydropyrido[3,4-d]pyrimidin-4-yl)-4-((R)-4-morpholino-1-(phenylthio)butan-2-ylamino)-3-(trifluoromethylsulfonyl)benzenesulfonamide]: the pIC50 is 7.08.

On to `CC1(C)CCC(CN2CCC(N3CCc4c(ncnc4NS(=O)(=O)c4ccc(N[C@H](CCN5CCOCC5)CSc5ccccc5)c(S(=O)(=O)C(F)(F)F)c4)C3)CC2)=C(c2ccc(Cl)cc2)C1` [Example 16, (R)-N-(7-(1-((2-(4-chlorophenol)-4,4-dimethylcyclohex-1-enyl)methyl)piperidin-4-yl)-5,6,7,8-tetrahydropyrido[3,4-d]pyrimidin-4-yl)-4-(4-morpholino-1-(phenylthio)butan-2-ylamino)-3-(trifluoromethylsulfonyl)benzenesulfonamide], for which the pIC50 was 7.39.

As to `[2H]C1(N2CCc3c(ncnc3NS(=O)(=O)c3ccc(N[C@H](CCN(C)C(C)C)CSc4ccccc4)c(S(=O)(=O)C(F)(F)F)c3)C2)CCN(CC2=C(c3ccc(Cl)cc3)CC(C)(C)CC2)CC1` [Example 78, N-(7-(1-[2-(4-Chloro-phenyl)-4,4-dimethyl-cyclohex-1-enylmethyl]-4-deutero-piperidin-4-yl)-5,6,7,8-tetrahydro-pyrido[3,4-d]pyrimidin-4-yl)-4-[(R)-3-(isopropyl-methyl-amino)-1-phenylsulfanylmethyl-propylamino]-3-trifluoromethanesulfonyl-benzenesulfonamide], the negative-log IC50 (pIC50) was 7.39.

As to `CN(C)CC[C@H](CSc1ccccc1Cl)Nc1ccc(S(=O)(=O)Nc2nc(C(F)(F)F)nc3c2CCN(C2CCN(CC4=C(c5ccc(Cl)cc5)CC(C)(C)CC4)CC2)C3)cc1S(=O)(=O)C(F)(F)F` [Example 32, (R)-N-(7-(1-((2-(4-chlorophenyl)-4,4-dimethylcyclohex-1-enyl)methyl)piperidin-4-yl)-2-(trifluoromethyl)-5,6,7,8-tetrahydropyrido[3,4-d]pyrimidin-4-yl)-4-(1-(2-chlorophenylthio)-4-(dimethylamino)butan-2-ylamino)-3-(trifluoromethylsulfonyl)benzenesulfonamide], the pIC50 was 7.06.

Take `CC1Cc2c(ncnc2NS(=O)(=O)c2ccc(N[C@H](CCN(C)C)CSc3ccccc3)c(S(=O)(=O)C(F)(F)F)c2)CN1C1CCN(Cc2ccccc2-c2ccc(Cl)cc2)CC1` (stereo in doubt) [Example 49, N-{(R)-7-[1-(4′-Chloro-biphenyl-2-ylmethyl)-piperidin-4-yl]-6-methyl-5,6,7,8-tetrahydro-pyrido[3,4-d]pyrimidin-4-yl}-4-((R)-3-dimethylamino-1-phenylsulfanylmethyl-propylamino)-3-trifluoromethanesulfonyl-benzenesulfonamide]: the pIC50 was 7.48.

Turning to `[2H]C1(N2CCc3c(ncnc3NS(=O)(=O)c3ccc(N[C@H](CCN)CSc4ccccc4)c(S(=O)(=O)C(F)(F)F)c3)C2)CCN(Cc2cc(F)ccc2-c2ccc(Cl)cc2)CC1` [Example 79, 4-((R)-3-Amino-1-phenylsulfanylmethyl-propylamino)-N-{7-[4-deutero-1-(4′-chloro-4-fluoro-biphenyl-2-ylmethyl)-piperidin-4-yl]-5,6,7,8-tetrahydro-pyrido[3,4-d]pyrimidin-4-yl}-3-trifluoromethanesulfonyl-benzenesulfonamide], the negative-log IC50 (pIC50) is 7.08.

Consider `CN(C)CC[C@H](CSc1ccccc1)Nc1ccc(S(=O)(=O)Nc2ncnc3c2CCN(C2CCN(CC4=C(c5ccc(Cl)cc5)CCC(C)(C)C4)CC2)C3)cc1[N+](=O)[O-]` [Example 2], for which the pIC50 was 7.51.

On to `[2H]C1(N2CCc3c(ncnc3NS(=O)(=O)c3ccc(N[C@H](CCN4CCOCC4)CSc4ccccc4)c(S(=O)(=O)C(F)(F)F)c3)C2)CCN(C(C)C2=C(c3ccc(Cl)cc3)CC(C)(C)CC2)CC1` (stereo partly drawn) [Example 90, N-(7-(1-(1-(2-(4-chlorophenyl)-4,4-dimethylcyclohex-1-enyl)ethyl) 4-deuteropiperidin-4-yl)-5,6,7,8-tetrahydropyrido[3,4-d]pyrimidin-4-yl)-4-((R)-4-D-morpholino-1-(phenylthio)butan-2-ylamino)-3-(trifluoromethylsulfonyl)benzenesulfonamide], for which the pIC50 was 6.83.

Consider `CN(C)CC[C@H](CSc1ccccc1Cl)Nc1ccc(S(=O)(=O)Nc2ncnc3c2CCN(C2CCN(Cc4ccccc4-c4ccc(Cl)cc4)CC2)C3)cc1S(=O)(=O)C(F)(F)F` [Example 40], for which the negative-log IC50 (pIC50) was 7.49.

On to `CC(c1cc(F)ccc1-c1ccc(Cl)cc1)N1CCC(N2CCc3c(ncnc3NS(=O)(=O)c3ccc(N[C@H](CCN4CCN(C)CC4)CSc4ccccc4)c(S(=O)(=O)C(F)(F)F)c3)C2)CC1` (stereo partly drawn) [Example 35, N-(7-(1-(1-(4′-chloro-4-fluorobiphenyl-2-yl)ethyl)piperidin-4-yl)-5,6,7,8-tetrahydropyrido[3,4-d]pyrimidin-4-yl)-4-((R)-4-(4-methylpiperazin-1-yl)-1-(phenylthio)butan-2-ylamino)-3-(trifluoromethylsulfonyl)benzenesulfonamide], for which the pIC50 is 7.10.

`CC(c1ccccc1-c1ccc(Cl)cc1)N1CCC(N2CCc3c(nc(C(F)(F)F)nc3NS(=O)(=O)c3ccc(N[C@H](CCN(C)C)CSc4ccccc4Cl)c(S(=O)(=O)C(F)(F)F)c3)C2)CC1` (stereo partly drawn) [Example 34, N-(7-(1-(1-(4′-chlorobiphenyl-2-yl)ethyl)piperidin-4-yl)-2-(trifluoromethyl)-5,6,7,8-tetrahydropyrido[3,4-d]pyrimidin-4-yl)-4-((R)-1-(2-chlorophenylthio)-4-(dimethylamino)butan-2-ylamino)-3-(trifluoromethylsulfonyl)benzenesulfonamide]: the pIC50 is 7.00.

Take `CN(C)CC[C@H](CSc1cccc(Cl)c1)Nc1ccc(S(=O)(=O)Nc2ncnc3c2CCN(C2CCN(Cc4ccccc4-c4ccc(Cl)cc4)CC2)C3)cc1S(=O)(=O)C(F)(F)F` [Example 26, N-{7-[1-(4′-Chloro-biphenyl-2-ylmethyl)-piperidin-4-yl]-5,6,7,8-tetrahydro-pyrido[3,4-c]pyrimidin-4-yl}-4-[(R)-1-(3-chloro-phenylsulfanylmethyl)-3-dimethylamino-propylamino]-3-trifluoromethanesulfonyl-benzenesulfonamide]: the negative logarithm of the IC50 (pIC50) was 7.32.

Take `[2H]C1(N2CCc3c(ncnc3NS(=O)(=O)c3ccc(N[C@H](CCN(C)C(C)C)CSc4ccccc4)c(S(=O)(=O)C(F)(F)F)c3)C2)CCN(Cc2cc(F)ccc2-c2ccc(Cl)cc2)CC1` [Example 84]: the pIC50 was 7.14.

As for `CN(C)CC[C@H](CSc1ccccc1)Nc1ccc(S(=O)(=O)Nc2ncnc3c2CCN(C2CCN(Cc4ccccc4-c4ccccc4Cl)CC2)C3)cc1S(=O)(=O)C(F)(F)F` [Example 98], the negative logarithm of the IC50 (pIC50) was 7.44.

Take `CC[C@H](CSc1ccccc1)Nc1ccc(S(=O)(=O)Nc2ncnc3c2CCN(C2CCN(Cc4ccccc4-c4ccc(Cl)cc4)CC2)C3)cc1S(=O)(=O)C(F)(F)F` [Example 13]: the pIC50 is 6.30.

`C[C@H](CSc1ccccc1)Nc1ccc(S(=O)(=O)Nc2ncnc3c2CCN(C2CCN(Cc4ccccc4-c4ccc(Cl)cc4)CC2)C3)cc1S(=O)(=O)C(F)(F)F` [Example 44, N-(7-(1((4′-chlorobiphenyl-2-yl)-methyl)piperidin-4-yl)-5,6,7,8-tetrahydropyrido[3,4-d]pyrimidin-4-yl)-4-(1-(phenylthio)propan-2-ylamino)-3-(trifluoromethylsulfonyl)benzenesulfonamide]: the negative logarithm of the IC50 (pIC50) was 6.63.

In the case of `O=S(=O)(Nc1ncnc2c1CN(C1CCN(Cc3ccccc3-c3ccc(Cl)cc3)CC1)C2)c1ccc(N[C@H](CCN2CCOCC2)CSc2ccccc2)c(S(=O)(=O)C(F)(F)F)c1` [Example 72, (R)-N-(6-(1-((4′-chlorobiphenyl-2-yl)methyl)piperidin-4-yl)-6,7-dihydro-5H-pyrrolo[3,4-d]pyrimidin-4-yl)-4-(4-morpholino-1-(phenylthio)butan-2-ylamino)-3-(trifluoromethylsulfonyl)benzenesulfonamide], the negative-log IC50 (pIC50) was 6.01.

Regarding `[2H]C1(N2CCc3c(ncnc3NS(=O)(=O)c3ccc(N[C@H](CCN4CC5CCC(C4)O5)CSc4ccccc4)c(S(=O)(=O)C(F)(F)F)c3)C2)CCN(CC2=C(c3ccc(Cl)cc3)CC(C)(C)CC2)CC1` [Example 81, 4-((2R)-4-(8-oxa-3-azabicyclo[3.2.1]octan-3-yl)-1-(phenylthio)butan-2-ylamino)-N-(7-(1-((2-(4-chlorophenyl)-4,4-dimethylcyclohex-1-enyl)methyl)-4-deuteropiperidin-4-yl)-5,6,7,8-tetrahydropyrido[3,4-d]pyrimidin-4-yl)-3-(trifluoromethylsulfonyl)-benzenesulfonamide], the negative logarithm of the IC50 (pIC50) was 6.51.

In the case of `[2H]C1(N2CCc3c(ncnc3NS(=O)(=O)c3ccc(N[C@H](CCN4CCCC4)CSc4ccccc4)c(S(=O)(=O)C(F)(F)F)c3)C2)CCN(CC2=C(c3ccc(Cl)cc3)CC(C)(C)CC2)CC1` [Example 85, (R)-N-(7-(1-((2-(4-chlorophenyl)-4,4-dimethylcyclohex-1-enyl)methyl)-4-deuteropiperidin-4-yl)-5,6,7,8-tetrahydropyrido[3,4-d]pyrimidin-4-yl)-4-(1-(phenylthio)-4-(pyrrolidin-1-yl)butan-2-ylamino)-3-(trifluoromethylsulfonyl)benzenesulfonamide], the pIC50 is 7.52.
